# Experimental data reported in patent US11905268B2, “Anthranilic acid derivatives and their use in the treatment of human cancers” (UNIVERSITY OF CENTRAL FLORIDA RESEARCH FOUNDATION, INC., priority 2018, dated 2024).
# Read-outs that look alike come from different tables or passages of the source.
# Legend:
# L3.6pl cells = assay: cells; type: cell-based; conditions: for IC50: Homo sapiens, L3.6pl; for L3.6pl MTC: maximum tolerated concentration where cells are >90% viable
# CHO cells [1] = assay: Ant44 rescue assay in CHO cells (Assay 1); type: cell-based, Chinese hamster; conditions: for IC50 / EC50: Cricetulus griseus
# Protocol: CHO K1 cells were grown in growth medium (RPMI+10% FBS+1×P/S+1% l-glutamine) to 70% confluency, washed in PBS and trypsinized. Cells were plated in assay medium (serum free RPMI+2% FBS+1×l-glutamine+1×P/S+[…] aminoguanidine) at 50000 cells/mL for 200 cells per well in 4 ul using a Thermo Multidrop Combi into a 1536-well white Aurora plate.
# Ant44 is a cytotoxic polyamine, i.e., N^1-(9-anthracenyl)-homospermidine. A non-toxic PTI compound would block entry or intracellular trafficking of the Ant44 toxin and rescue the cells back to high viability. Therefore, this screen tested for compounds which rescued cells from Ant44 toxicity. […] This was followed by adding 10 uL of 10 uM Ant44 (FAC 2 uM) in assay medium with a Beckman BioRAPTR FRD dispenser or 10 uL of cells added in assay medium (positive control).
# [2] = system: DFMO treated Chinese hamster ovary (CHO) cells; assay: DFMO/spermidine rescue assay in CHO cells (Assay 2); type: cell-based; conditions: for IC50: Cricetulus griseus
# Protocol: In the reconfirmation assay compounds were run in quadruplicate. […] A PTI compound is expected to block the entry or disrupt the intracellular trafficking of spermidine and inhibit the ability of spermidine to rescue the growth or viability of DFMO treated cells.
# DFMO/Spermidine assay Here cells were treated with an inhibitor of polyamine biosynthesis (DFMO) and rescued back to high viability by the presence of exogenous polyamine (spermidine). Putative PTI compounds were screened for their ability to block the entry or intracellular trafficking of exogenous spermidine (or otherwise disrupt the intracellular trafficking of spermidine) by measuring cell viability in the presence of DFMO+spermidine+PTI compound. […] This was followed by adding 10 μL of […] and 5 μM spermidine (FAC 5 mM DFMO and 1 μM spermidine) in assay medium with a Beckman BioRAPTR FRD dispenser or 10 μL of 5 mM DFMO added in assay medium (positive control). […] A PTI compound is expected to block the entry or disrupt the intracellular trafficking of spermidine and inhibit the ability of spermidine to rescue the growth or viability of DFMO treated cells Cytotoxicity
# CHO cells [3] = assay: Cytotoxicity screen in CHO cells; conditions: for IC50 at 48 h: Chinese hamster, CHO K1 cells; for tox (DFMO Assay): listed with DFMO assay
# Protocol: CHO K1 cells were grown in growth medium to 70% confluency and washed in PBS and trypsinized. […] Cells were spun at 100×g for 1 minute and incubated at 37° C. in a humidified CO2 incubator for 24 hours. […] Cellular ATP content was then assayed by adding 3 uL of ATPLite with a Beckman BioRAPTR FRD dispenser and incubated for 10 minutes at room temperature. Plates were spun at 200×g for 1 minute and read on a Perkin Elmer Viewlux multimode plate reader using luminescence mode. This assay was used for testing dose-response of dry powders.
# CHO K1 cells were grown in growth medium to 70% confluency and washed in PBS and trypsinized. Cells were plated in assay medium at 10000 cells/mL for 200 cells per well using a Thermo Multidrop Combi in 20 uL into a white Greiner plate. Cells were spun at 100×g for 1 minute and incubated at 37° C. in a humidified CO2 incubator for 24 hours. […] This was followed by adding by 10 μL of assay medium to all wells with a Beckman BioRAPTR FRD dispenser. The plates were spun at 200×g for 1 minute and incubated at 37° C. in a humidified 5% CO2 incubator for 48 hours. Cellular ATP content was then assayed by adding 20 μL of ATPLite with a Beckman BioRAPTR FRD dispenser and incubated for 10 min at room temperature. Plates were spun at 200×g for 1 minute and read on a Perkin Elmer Envision for multimode plate reader using luminescence mode. Duplicates were run for each compound concentration, and the curves represent the average of the duplicates as percent viability.
# The final compound concentration was either 20 μM or 10 μg/mL (depending upon the compound source). A successful PTI in Assay 1 would block the uptake of the toxic Ant44 probe and rescue the cells back to >90% relative growth vs an untreated control. It was critical to also evaluate the toxicity of the PTI by itself as a toxic PTI would give a false negative in Assay1 (and a false positive in Assay 2). […] Assay 2 then evaluated the ability of the compound to inhibit the uptake of a rescuing dose of Spermidine (Spd, 1 μM) into DFMO-treated CHO cells.
# [4] = read-out: IC50 values (toxicity profile)
# [5] = relative growth after 72 h, read-out: L3.6pl IC50
# [6] = CHO, Table 7, read-out: SAR IC50 Ant44 assay
# [7] = CHO, Table 7, read-out: SAR IC50 DFMO assay
# [8] = Table 1 HTS top hits, CHO cells, read-out: DFMO Assay IC50
# [9] = toxic above the stated concentration, CHO cells
# [10] = Table 1 HTS top hits, CHO cells, read-out: Ant44 EC50
SMILES,IC50 (CHO cells [1]; [6]),"IC50 [2, 7]",IC50 at 48 h (CHO cells [3]),also measured
COc1ccccc1C(=O)Nc1ccc(N2CCN(c3ccccc3OC)CC2)cc1C(=O)O [ChemDiv F687-0882],,,,IC50 (L3.6pl cells; [4]): > 38 µM; IC50 (L3.6pl cells; [5]): > 50 µM; L3.6pl MTC (L3.6pl cells): 9 µM
COc1ccccc1C(=O)Nc1ccc(N2CCN(c3ccccc3)CC2)cc1C(=O)O [ChemDiv F687-0884],,,,IC50 (L3.6pl cells; [4]): > 38 µM; IC50 (L3.6pl cells; [5]): 46.3 ± 0.02 µM; L3.6pl MTC (L3.6pl cells): 9 µM
"COc1ccc(C(=O)Nc2ccc(N3CCN(c4cc(Cl)ccc4C)CC3)cc2C(=O)O)cc1 [SBI-0754479, 5-(4-(5-chloro-2-methylphenyl)piperazin-1-yl)-2-(4-methoxybenzamido)benzoic acid]",> 40 µM,8 µM,13 µM,IC50 (L3.6pl cells; [5]): 16.8 ± 0.1 µM; L3.6pl MTC (L3.6pl cells): 8 µM
CCOC(=O)N1CCN(c2ccc(NC(=O)c3ccc(OC)cc3)c(C(=O)O)c2)CC1 [SBI-0800692],> 40 µM,> 40 µM,34 µM,"Ant44 EC40 (CHO cells [1]; Table 1, CHO cells): SBI- 0800692.0001 (EC40 at 31) μM; IC50 [2, 8]: ~20 µM; tox (DFMO Assay) (CHO cells [3]; [9]): SBI- 0800692.0001 (IC50 ~20, tox >20) μM"
COc1ccc(C(=O)Nc2ccc(N3CCC(C(N)=O)CC3)cc2C(=O)O)cc1 [SBI-0800693],> 40 µM,> 40 µM,,"Ant44 EC50 (CHO cells [1]; Table 1 HTS top hits, CHO cells): SBI- 0800693.0001 (NO EFFECT); IC50 [2, 8]: ~10 µM; tox (DFMO Assay) (CHO cells [3]; [9]): SBI- 0800693.0001 (Ic50 ~10 μM, tox >10 μM)"
"COc1ccccc1C(=O)Nc1ccc(N2CCN(c3ccccn3)CC2)cc1C(=O)O [SBI-0801308, 2-(2-methoxybenzamido)-5-(4-(pyridin-2-yl)piperazin-1-yl)benzoic acid]",4 µM,> 40 µM,21 µM,"EC50 (CHO cells [1]; CHO, Table 3, read-out: Ant44 rescue EC50 CHO): 10 µM; EC50 (CHO cells [1]; [10]): 5 to 10 µM; IC50 (CHO cells [1]; Table 5B, CHO cells, read-out: Ant44 IC50): 3.6 µM; IC50 [2, 8]: 10 to 20 µM; Active in DFMO assay? ([2]; Table 3, in CHO): No in CHO; DFMO/CHO IC50 ([2]; Table 5B): trace; CHO MTD EC50 (CHO cells [3]; hamster): (22) uM; MTD CHO (CHO cells [3]; hamster): ~10 µM; Tox (Ant44) (CHO cells [3]; toxic above the stated concentration, CHO cells, listed with Ant44 assay): > 31 µM; tox (DFMO Assay) (CHO cells [3]; [9]): > 20 µM"
"COc1ccc(C(=O)Nc2ccc(N3CCN(c4cc(Cl)ccc4C)CC3)cc2C(=O)O)c(OC)c1 [SBI-0801324, 5-(4-(5-chloro-2-methylphenyl)piperazin-1-yl)-2-(2,4-dimethoxybenzamido)benzoic acid]",> 40 µM,> 40 µM,> 40 µM,"EC50 (CHO cells [1]; [10]): 31 µM; DFMO Assay IC40 ([2]; Table 1, CHO cells): 31 µM; tox (DFMO Assay) (CHO cells [3]; [9]): Non tox"
"COc1ccc(S(=O)(=O)Nc2ccc(N3CCN(c4cc(Cl)ccc4C)CC3)cc2C(=O)O)cc1 [SBI-0801326, 5-(4-(5-chloro-2-methylphenyl)piperazin-1-yl)-2-(4-methoxyphenylsulfonamido)benzoic acid]",> 40 µM,> 40 µM,> 40 µM,
"COC(=O)c1cc(N2CCN(c3cc(Cl)ccc3C)CC2)ccc1NC(=O)c1ccc(OC)cc1 [SBI-0801722, methyl 5-(4-(5-chloro-2-methylphenyl)piperazin-1-yl)-2-(4-methoxybenzamido)benzoate]",> 40 µM,> 40 µM,> 40 µM,
"COC(=O)c1cc(N2CCN(c3cc(Cl)ccc3C)CC2)ccc1NC(=O)c1ccc(OC)cc1OC [SBI-0801723, methyl 5-(4-(5-chloro-2-methylphenyl)piperazin-1-yl)-2-(2,4-dimethoxybenzamido)benzoate]",> 40 µM,> 40 µM,> 40 µM,
"COC(=O)c1cc(N2CCN(c3cc(Cl)ccc3C)CC2)ccc1NC(=O)c1ccccc1OC [SBI-0801724, methyl 5-(4-(5-chloro-2-methylphenyl)piperazin-1-yl)-2-(2-methoxybenzamido)benzoate]",> 40 µM,> 40 µM,> 40 µM,
"COc1ccccc1C(=O)Nc1ccc(N2CCN(Cc3ccccc3)CC2)cc1C(=O)O [SBI-0814414, 5-(4-benzylpiperazin-1-yl)-2-(2-methoxybenzamido)benzoic acid]",> 40 µM,> 40 µM,> 40 µM,
"COc1ccccc1C(=O)Nc1ccc(N2CCN(CCc3ccccc3)CC2)cc1C(=O)O [SBI-0814415, 2-(2-methoxybenzamido)-5-(4-phenethylpiperazin-1-yl)benzoic acid]",> 40 µM,> 40 µM,> 40 µM,
"COc1ccccc1C(=O)Nc1ccc(N2CCN(CCCc3ccccc3)CC2)cc1C(=O)O [SBI-0814416, 2-(2-methoxybenzamido)-5-(4-(3-phenylpropyl)piperazin-1-yl)benzoic acid]",> 40 µM,> 40 µM,> 40 µM,
"COc1ccccc1C(=O)Nc1ccc(N2CCN(c3ccccn3)CC2)cc1 [SBI-0814417, 2-methoxy-N-(4-(4-(pyridin-2-yl)piperazin-1-yl)phenyl)benzamide]",> 40 µM,> 40 µM,14 µM,
"COC(=O)c1cc(CN2CCN(c3ccccn3)CC2)ccc1NC(=O)c1ccccc1OC [SBI-0814422, Methyl 2-(2-methoxybenzamido)-5-((4-(pyridin-2-yl)piperazin-1-yl)methyl)benzoate]",> 20 µM,> 20 µM,> 20 µM,
"COc1ccccc1C(=O)Nc1ccc(CN2CCN(c3ccccn3)CC2)cc1C(=O)O [SBI-0814423, 2-(2-Methoxybenzamido)-5-((4-(pyridin-2-yl)piperazin-1-yl)methyl)benzoic acid]",> 40 µM,> 40 µM,> 40 µM,
"COc1ccccc1C(=O)Nc1ccc(N2CCN(C(=O)c3ccccn3)CC2)cc1C(=O)O [SBI-0814424, 2-(2-methoxybenzamido)-5-(4-picolinoylpiperazin-1-yl)benzoic acid]",> 40 µM,> 40 µM,> 40 µM,
